Experimental data reported in ChEMBL document CHEMBL4152305, “Studies on 2-phenylquinoline Staphylococcus aureus NorA efflux pump inhibitors: New insights on the C-6 position” (Eur J Med Chem, 2018).
≈ marks a conversion by molar mass, not a printed value. Calls of active or inactive are those of the source. No cut-off for these calls is given here.

Experiments:
[1] = target: T1, Quinolone resistance protein NorA (Staphylococcus aureus) (UniProt P0A0J7); assay: Inhibition of Staphylococcus aureus SA-1199B NorA assessed as reduction in EtBr efflux at 50 uM measured over 5 mins by fluorescence assay relative to control
T1 sequence (whole entry): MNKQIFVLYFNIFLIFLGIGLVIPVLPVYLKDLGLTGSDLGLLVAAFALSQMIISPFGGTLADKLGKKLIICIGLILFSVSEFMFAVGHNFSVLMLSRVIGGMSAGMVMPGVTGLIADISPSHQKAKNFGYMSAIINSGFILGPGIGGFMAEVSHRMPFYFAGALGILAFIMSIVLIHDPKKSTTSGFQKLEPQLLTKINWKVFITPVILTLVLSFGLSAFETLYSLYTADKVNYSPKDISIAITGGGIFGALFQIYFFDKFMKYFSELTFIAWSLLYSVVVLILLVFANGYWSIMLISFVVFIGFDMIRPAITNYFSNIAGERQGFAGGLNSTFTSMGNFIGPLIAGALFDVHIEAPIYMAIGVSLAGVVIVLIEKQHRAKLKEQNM

Staphylococcus aureus [2] = assay: Growth inhibition of Staphylococcus aureus SA-1199 expressing wild type norA by microdilution method; format: organism-based; settings: in vivo
Staphylococcus aureus [3] = assay: Growth inhibition of Staphylococcus aureus SA-1199B expressing wild type norA and co-expressing GrlA A116E mutant by microdilution method; format: organism-based; settings: in vivo
[4] = target: T1, Quinolone resistance protein NorA (Staphylococcus aureus); assay: Potency index, ratio of reserpine IC50 to test compound IC50 for Staphylococcus aureus SA-1199B NorA assessed as reduction in EtBr efflux
[5] = target: T2, Quinolone resistance protein NorA (Staphylococcus aureus, UniProt P0A0J7); assay: Inhibition of Staphylococcus aureus SA-1199B NorA assessed as reduction in EtBr efflux measured over 5 mins by fluorescence assay
T2 sequence (P0A0J7 whole entry): T1 sequence (whole entry)

[6] = target: T1, Quinolone resistance protein NorA (Staphylococcus aureus); assay: Inhibition of Staphylococcus aureus SA-1199 norA assessed as potentiation of ciprofloxacin-induced antibacterial activity up to 100 ug/ml by checkerboard method
Staphylococcus aureus [7] = assay: Growth inhibition of Staphylococcus aureus ATCC 25923 by microdilution method; format: organism-based; settings: in vivo
[8] = target: T1, Quinolone resistance protein NorA (Staphylococcus aureus); assay: Inhibition of Staphylococcus aureus SA-1199B NorA assessed as potentiation of ciprofloxacin-induced antibacterial activity by measuring minimum potetntiation concentration causing 4 fold reduction in ciprofloxacin MIC by ciprofloxacin assay
Staphylococcus aureus [9] = assay: Growth inhibition of Staphylococcus aureus ATCC 25923 up to 100 ug/ml in presence of ciprofloxacin by checkerboard assay; format: organism-based; settings: in vivo
[10] = Cytotoxicity against human HepG2 cells assessed as reduction in cell number after 24 hrs by bioluminescence assay; format: cell-based
[11] = Selectivity index, ratio of CC50 for human HepG2 cells to compound effect for inhibition of Staphylococcus aureus SA-1199B NorA assessed as potentiation of ciprofloxacin-induced antibacterial activity by measuring minimum potetntiation concentration causing 4 fold reduction in ciprofloxacin MIC; format: toxicity; settings: read-out: Selectivity Index

| Compound | inhibition [1] | MIC (Staphylococcus aureus [2]) | MIC (Staphylococcus aureus [3]) | Ratio IC50 [4] | IC50 [5] | Activity [6] | MIC (Staphylococcus aureus [7]) | Activity [8] | growth inhibition (GI) (Staphylococcus aureus [9]) | CC50 at 24 h [10] | selectivity ratio [11] |
| --- | --- | --- | --- | --- | --- | --- | --- | --- | --- | --- | --- |
| CCCOc1ccc(-c2cc(OCCN3CCCCC3)c3cc(O)ccc3n2)cc1 | 87% | 25 µg/mL (≈ 61.5 µM) | 61.5 µM | 2 | 3.3 µM | inactive | 25 µg/mL (≈ 61.5 µM) | 6.25 µg/mL | Non-Toxic |  |  |
| CCCOc1ccc(-c2cc(OCCN3CCCCC3)c3cc(OCCN4CCCCC4)ccc3n2)cc1 |  | Nd(Insoluble) |  |  |  | inactive | Nd(Insoluble) |  | Non-Toxic |  |  |
| O=C(O)c1cn(C2CC2)c2cc(N3CCNCC3)c(F)cc2c1=O [CIPROFLOXACIN] |  | 0.63 µg/mL (≈ 1.9 µM) | 10 µg/mL |  |  |  | 0.63 µg/mL (≈ 1.9 µM) |  |  |  |  |
| COC(=O)[C@H]1[C@H]2C[C@@H]3c4[nH]c5cc(OC)ccc5c4CCN3C[C@H]2C[C@@H](OC(=O)c2cc(OC)c(OC)c(OC)c2)[C@@H]1OC [RESERPINE] |  | > 100 µg/mL | > 164 µM |  | 9.2 µM |  | > 100 µg/mL | 1.56 µg/mL |  |  |  |
| CCCOc1ccc(-c2cc(OCCN3CCCCC3)c3cc(OCc4ccccc4)ccc3n2)cc1 | 76.3% | 100 µg/mL (≈ 201 µM) |  | 2 |  | inactive | 100 µg/mL (≈ 201 µM) | 0.78 µg/mL | Non-Toxic | 33.8 µg/mL (≈ 68.1 µM) | 43.4 |
| CCCOc1ccc(-c2cc(OCCN(CC)CC)c3cc(OCCCN4CCOCC4)ccc3n2)cc1 | 91.1% | > 100 µg/mL | > 191.7 µM | 2 | 5 µM | inactive | 100 µg/mL (≈ 192 µM) | 12.5 µg/mL | Non-Toxic |  |  |
| CCCOc1ccc(-c2cc(OCCN(CC)CC)c3ccccc3n2)cc1 |  |  |  |  | 8.9 µM |  |  | 6.25 µg/mL |  | 21.6 µg/mL (≈ 57 µM) | 3.5 |
| CCCOc1ccc(-c2cc(OCCN(CC)CC)c3cc(OCCN(CC)CC)ccc3n2)cc1 | 81.4% | > 100 µg/mL | > 202.6 µM |  | 10.6 µM | inactive | 100 µg/mL (≈ 203 µM) |  | Non-Toxic |  |  |
| CCCOc1ccc(-c2cc(OCCN(CC)CC)c3cc(OCCN4CCCCC4)ccc3n2)cc1 |  | Nd(Insoluble) |  |  |  | inactive | Nd(Insoluble) |  | Non-Toxic |  |  |
| CCCOc1ccc(-c2cc(OCCN3CCCCC3)c3cc(OCCN(CC)CC)ccc3n2)cc1 | 91.4% | 100 µg/mL (≈ 198 µM) | 197.7 µM | 2 | 5.2 µM | inactive | 100 µg/mL (≈ 198 µM) | 25 µg/mL | Non-Toxic |  |  |
| CCCOc1ccc(-c2cc(OCCN(CC)CC)c3cc(OCCCN(C)C)ccc3n2)cc1 | 80.9% | > 100 µg/mL | > 208.5 µM |  | 8.8 µM | inactive | 100 µg/mL (≈ 208 µM) |  | Non-Toxic |  |  |
| CCCOc1ccc(-c2cc(OCCN(CC)CC)c3cc(OCc4ccccc4)ccc3n2)cc1 | 91.1% | > 100 µg/mL |  | 2 |  | inactive | > 100 µg/mL | 0.78 µg/mL | Non-Toxic | 12.3 µg/mL (≈ 25.3 µM) | 15.7 |
| CCCOc1ccc(-c2cc(OCCN3CCCCC3)c3ccccc3n2)cc1 |  |  |  |  | 7.3 µM |  |  | 1.56 µg/mL |  | 38.9 µg/mL (≈ 99.6 µM) | 24.9 |
| CCCOc1ccc(-c2cc(OCCN3CCCCC3)c3cc(OCCCN4CCOCC4)ccc3n2)cc1 | 93.2% | 50 µg/mL (≈ 93.7 µM) | 93.7 µM | 2 | 4.4 µM | inactive | 100 µg/mL (≈ 187 µM) | 6.25 µg/mL | Non-Toxic |  |  |
| CCCOc1ccc(-c2cc(OCCN3CCCCC3)c3cc(OCCCN(C)C)ccc3n2)cc1 | 92.5% | 100 µg/mL (≈ 203 µM) | 203.4 µM |  | 7.2 µM | inactive | 100 µg/mL (≈ 203 µM) | 6.25 µg/mL | Non-Toxic |  |  |
| CCCOc1ccc(-c2cc(OCCN(CC)CC)c3cc(O)ccc3n2)cc1 | 95% | 50 µg/mL (≈ 127 µM) | 126.7 µM | 2 | 5.8 µM | inactive | 50 µg/mL (≈ 127 µM) | 1.56 µg/mL | Non-Toxic |  |  |
